Laboratory results from patent US20090291066A1, “COMPOSITION AND METHOD OF TREATING FACIAL SKIN DEFECT” (priority 2008, published 2009).

Assays:
facial preadipocytes = test: Differentiation of human primary facial preadipocytes (lipid droplet formation, oil red O); format: cell-based; settings: cell source not given
Protocol: Human primary preadipocytes from facial and abdominal skin samples, obtained with informed consent, were isolated and cultured following a published procedure (Crandall et al, Endocrinology 140:154-8, 1999). Briefly, samples from abdominal or facial operations were subjected to enzymatic digestion in Krebs-Ringer-bicarbonate buffer (pH 7.4) containing 6 mM glucose and 2 mg/mL collagenase. After this initial enzymatic digestion, the content of the flask was passed through a sterile, 230-micron stainless steel tissue sieve (Cellector, Bellco Glass Inc., Vineland, N.J.) into a 50-mL sterile, plastic test tube. […]
All differentiation agents (IBMX, dexamethasone, insulin, and rosiglitazone) were added to the culture media 24 hours after the cells were seeded. […] Subsequently, the cultures were incubated with oil red O (a dye that binds to neutral lipids); the dye was then extracted and quantified by spectrophotometry. […]
Human primary preadipocytes were isolated and cultured as described in Example 2. […] Subsequently, the cultures were incubated with oil red O (a dye that binds to neutral lipids); the dye was then extracted and quantified by spectrophotometry. […]

serum proteins = settings: in vivo; cited from earlier work

Row | SMILES | adipogenesis of preadipocytes (facial preadipocytes; added in the media at 5-50 μM in addition to IBMX, insulin and dexamethasone) | effect on the differentiation process (facial preadipocytes; alone, without IBMX and dexamethasone) | bound to serum proteins (serum proteins)
1 | CCCCC/C=C\C/C=C\CCCCCCCC(=O)O [Linoleic acid, linoleic acid] | can enhance adipogenesis of preadipocytes | could not affect the differentiation process | 
2 | CN(CCOc1ccc(CC2SC(=O)NC2=O)cc1)c1ccccn1 (stereo not drawn) [Rosiglitazone, rosiglitazone] |  |  | 99.8%
